Test results: ChEMBL document CHEMBL1201862, “PubChem BioAssay data set” (2004)
Values belong to the molecule of their own block, whether it stands above or below them. Calls of active or inactive are those of the source.

Assays:
[1] = target: Mitogen-activated protein kinase 10 (Homo sapiens, UniProt P53779); assay: Dose response biochemical screening assay for inhibitors of c-Jun N-Terminal Kinase 3 (JNK3). [Related pubchem assays: 746 ]
[2] = target: T1, Heat shock factor protein 1 (Mus musculus, UniProt P38532); assay: HSF1 potentiators in luciferase reporter cells, confirmation, cell-based, NIH3T3, luminescence, dose retest (AID 435004); format: functional;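 note: stress induced by proteasome inhibitor MG132 added 30 min after compound; luciferase reporter driven by HSF1 response element in NIH3T3 cells; actives raise luminescence as potentiators of the MG132 stress response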
T1 sequence (P38532 whole entry): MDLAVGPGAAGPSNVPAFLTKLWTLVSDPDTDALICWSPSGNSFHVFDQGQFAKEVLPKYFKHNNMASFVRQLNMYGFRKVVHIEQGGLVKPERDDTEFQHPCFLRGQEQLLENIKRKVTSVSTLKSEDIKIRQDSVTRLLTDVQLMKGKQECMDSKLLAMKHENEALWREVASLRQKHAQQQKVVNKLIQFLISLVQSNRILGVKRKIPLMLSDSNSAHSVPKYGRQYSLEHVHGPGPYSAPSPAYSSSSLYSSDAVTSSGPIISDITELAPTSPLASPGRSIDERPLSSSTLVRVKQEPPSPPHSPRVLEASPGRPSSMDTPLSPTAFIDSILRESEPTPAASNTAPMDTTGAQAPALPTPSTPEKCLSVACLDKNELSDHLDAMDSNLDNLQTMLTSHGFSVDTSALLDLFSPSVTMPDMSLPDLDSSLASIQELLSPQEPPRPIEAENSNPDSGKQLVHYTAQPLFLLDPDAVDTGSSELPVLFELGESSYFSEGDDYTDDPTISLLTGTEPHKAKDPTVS

[3] = target: Paired box protein Pax-8 (Homo sapiens, UniProt Q06710); assay: inhibitors of PAX8-driven TPO luciferase reporter, dose response, RMG-I cells, cherry-pick (AID 687027); format: functional, cell-based;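 note: luciferase reporter driven by Pax8 target thyroperoxidase promoter measured by SteadyGlo luminescence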
[4] = NIH:OVCAR-3 ovarian cancer cell cytotoxicity, dose response, PAX8 inhibitor project, plate reader, dry powder samples (AID 743044); format: functional, cell-based
[5] = cytotoxicity in OVCAR8 ovarian cancer cells, dose response, PAX8 project, cell-based, plate reader, dry powder samples (AID 743197); format: functional; settings: OVCAR-8
[6] = IGROV1 ovarian cancer cell cytotoxicity, dose response, PAX8 inhibitor project, plate reader, dry powder samples (AID 743043); format: functional, cell-based; settings: IGROV-1
[7] = A375 melanoma cell viability loss, dose response, counter-screen for MITF modulator project, CellTiter-Glo luminescence, dry powder, set 9 (AID 651591); format: functional, cell-based; settings: A-375
[8] = MITF Measured in Cell-Based System Using Plate Reader - 2084-01_Inhibitor_Dose_DryPowder_Activity_Set7.; format: functional
[9] = SK-MEL-5 parental line viability, dose response, MITF inhibitor project, cell-based, CellTiter-Glo, dry powder, set 6 (AID 624429); format: functional
[10] = MITF Orthogonal Assay: MALME3 CTG Assay Measured in Cell-Based System Using Plate Reader - 2084-04_Inhibitor_Dose_DryPowder_Activity_Set6.; format: functional; settings: MALME-3
[11] = MALME3 melanoma cell viability reduction, dose response, orthogonal assay for MITF inhibitor project, CellTiter-Glo luminescence, dry powder, set 5 (AID 651584); format: functional, cell-based; settings: MALME-3
[12] = A375 melanoma cell cytotoxicity, dose response, counter-screen for MITF inhibitor project, CellTiter-Glo luminescence, dry powder, set 7 (AID 624490); format: functional, cell-based; settings: A-375
[13] = A375 melanoma cell viability loss, dose response, counter-screen for MITF inhibitor project, CellTiter-Glo luminescence, dry powder, set 4 (AID 624364); format: functional, cell-based; settings: A-375;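 note: A375 melanoma cells are MITF independent so this is a counter screen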
[14] = A375 melanoma cell cytotoxicity, dose response, counter-screen for MITF inhibitor project, CellTiter-Glo luminescence, dry powder, set 6 (AID 624488); format: functional, cell-based; settings: A-375
[15] = cytotoxicity in primary human melanocytes, dose response, cytotoxicity control, cell-based, plate reader, dry powder (AID 651920); format: functional
[16] = SK-MEL-5 parental cell viability reduction, dose response, orthogonal assay for MITF inhibitor project, CellTiter-Glo luminescence, dry powder, set 8 (AID 651586); format: functional, cell-based
[17] = MITF Measured in Cell-Based System Using Plate Reader - 2084-01_Inhibitor_Dose_DryPowder_Activity_Set6.; format: functional
[18] = MITF Orthogonal Assay: SK-MEL-5 CTG Assay Measured in Cell-Based System Using Plate Reader - 2084-02_Inhibitor_Dose_DryPowder_Activity_Set5.; format: functional
[19] = TRPM1 promoter luciferase reporter signal decrease, dose response, MITF inhibitor project, cell-based, SK-MEL-5, dry powder, set 9 (AID 651588); format: functional
[20] = HepG2 cell cytotoxicity, dose response, cytotoxicity control, cherry-picked samples (AID 1159577); format: functional, cell-based
[21] = P. falciparum Dd2 growth inhibitors, dose response, SYBR Green, cherry-picked samples (AID 1159567); format: functional, cell-based
[22] = target: Heat shock protein HSP 90-alpha (Homo sapiens, UniProt P07900); assay: Luminescence-based dose response biochemical high throughput screening assay for inhibitors of the Heat Shock Protein 90 (HSP90). [Related pubchem assays: 1831 (Summary AID.), 1846 (Confirmation screen.), 1789 (Primary screen.)]

Paired box protein Pax-8, sequence (Q06710 whole entry): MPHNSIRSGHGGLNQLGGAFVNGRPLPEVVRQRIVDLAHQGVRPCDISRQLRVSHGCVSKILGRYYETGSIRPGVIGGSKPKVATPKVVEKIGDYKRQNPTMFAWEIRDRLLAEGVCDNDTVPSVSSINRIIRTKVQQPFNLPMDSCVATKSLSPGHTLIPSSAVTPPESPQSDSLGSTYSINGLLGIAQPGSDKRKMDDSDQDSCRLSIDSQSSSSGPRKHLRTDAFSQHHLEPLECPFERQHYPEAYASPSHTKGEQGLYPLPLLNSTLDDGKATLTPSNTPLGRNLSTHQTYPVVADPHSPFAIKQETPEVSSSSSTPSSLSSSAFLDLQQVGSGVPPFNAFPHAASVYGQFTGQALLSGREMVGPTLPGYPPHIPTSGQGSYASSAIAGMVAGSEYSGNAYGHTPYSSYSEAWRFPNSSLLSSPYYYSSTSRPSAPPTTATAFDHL
Mitogen-activated protein kinase 10, sequence (P53779 whole entry): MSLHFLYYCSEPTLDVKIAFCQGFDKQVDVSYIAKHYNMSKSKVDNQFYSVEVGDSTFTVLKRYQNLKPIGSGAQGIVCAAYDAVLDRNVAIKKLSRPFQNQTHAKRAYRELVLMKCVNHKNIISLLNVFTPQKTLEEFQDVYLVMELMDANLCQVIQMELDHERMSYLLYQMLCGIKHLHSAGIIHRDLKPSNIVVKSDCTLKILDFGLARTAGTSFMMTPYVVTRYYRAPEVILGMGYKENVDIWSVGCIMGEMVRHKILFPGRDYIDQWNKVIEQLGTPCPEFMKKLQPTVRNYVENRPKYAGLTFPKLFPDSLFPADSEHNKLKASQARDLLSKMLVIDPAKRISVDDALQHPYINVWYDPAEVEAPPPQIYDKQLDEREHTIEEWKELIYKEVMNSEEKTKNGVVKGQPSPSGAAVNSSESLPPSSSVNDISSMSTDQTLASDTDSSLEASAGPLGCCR

- IC50 [1]: 30.9 µM (not active)
- EC50 [2]: > 260 µM (inactive)
SMILES: C/C(=N/Cc1ccco1)C1=C(O)c2ccccc2C1=O

SMILES: C[C@H]1CCCCO[C@H](CN(C)Cc2ccc(Cl)c(Cl)c2)[C@@H](C)CN([C@@H](C)CO)C(=O)c2cc(NC(=O)Nc3ccc(C(F)(F)F)cc3)ccc2O1
- AC50 [3]: 9.26 µM (active)
- AC50 [4]: 23.4 µM (active)
- AC50 [5]: 50.7 µM (active)
- AC50 [6]: 59 µM (active)

SMILES: C[C@@H]1CCCCO[C@H](CN(C)Cc2ccc(Cl)c(Cl)c2)[C@@H](C)CN([C@@H](C)CO)C(=O)c2cc(NC(=O)Nc3ccc(C(F)(F)F)cc3)ccc2O1
- AC50 [3]: 4.2 µM (active)
- AC50 [4]: 40 µM (active)
- AC50 [5]: > 70 µM (inactive)

SMILES: O=C1C(NS(=O)(=O)c2cccs2)=C(c2ccccc2)C(=O)c2ccccc21
- AC50 [7]: > 70 µM (inactive)
- AC50 [8]: 39.1 µM (active)
- AC50 [9]: > 70 µM (inactive)
- AC50 [10]: > 70 µM (inactive)
- AC50 [11]: > 70 µM (inactive)
- AC50 [12]: > 70 µM (inactive)
- AC50 [13]: > 70 µM (inactive)
- AC50 [14]: > 70 µM (inactive)
- AC50 [15]: > 70 µM (inactive)
- AC50 [16]: > 70 µM (inactive)
- AC50 [17]: 45.7 µM (active)
- AC50 [18]: 65.9 µM (active)
- AC50 [19]: > 70 µM (inactive)

SMILES: C/C=C/c1ccc([C@@H]2[C@@H]3CN(Cc4ccc5c(c4)OCO5)C[C@H]2N3)cc1
- AC50 [20]: 11.8 µM (active)
- AC50 [21]: 4.09 µM (active)

SMILES: CO[C@H]1CN(C)C(=O)c2cc(NC(=O)c3ccc(Oc4ccccc4)cc3)ccc2OC[C@@H](C)NC[C@@H]1C
- AC50 [20]: > 39 µM (inactive)
- AC50 [21]: 6.05 µM (active)

- IC50 [22]: 3.39 µM (active)
SMILES: Nc1cc(-c2ccccc2)ccc1O
